Experimental findings from ChEMBL document CHEMBL1177878, “Synthesis and hypolipidemic activity of novel 2-(4-(2-substituted aminothiazole-4-yl) phenoxy) acetic acid derivatives” (Eur J Med Chem, 2010) are described below.

In data set [1] the test system is Rattus norvegicus. In words: Antihyperlipidemic activity in high fat diet-induced hyperlipidemic Sprague-Dawley rat model assessed as reduction of blood triglyceride level at 50 mg/kg, po for 7 days (reference value: 142.4 +/- 1.53 mg/dl). The class given is functional.
Data set [2] relates to Rattus norvegicus. In words: Antihyperlipidemic activity in high fat diet-induced hyperlipidemic Sprague-Dawley rat model assessed as reduction of blood VLDL level at 50 mg/kg, po for 7 days (reference value: 26.2 +/- 1.20 mg/dl). The class given is functional.
Data set [3] concerns Rattus norvegicus. In words: Antihyperlipidemic activity in high fat diet-induced hyperlipidemic Sprague-Dawley rat model assessed as reduction of body weight at 50 mg/kg, po for 7 days. The format is functional.
In data set [4] the test system is Rattus norvegicus. In words: Antihyperlipidemic activity in high fat diet-induced hyperlipidemic Sprague-Dawley rat model assessed as increase of blood HDL level at 50 mg/kg, po for 7 days (reference value: 18.6 +/- 1.36 mg/dl). The format is functional.
For data set [5], the system named is Rattus norvegicus. In words: Antihyperlipidemic activity in high fat diet-induced hyperlipidemic Sprague-Dawley rat model assessed as reduction of blood LDL level at 50 mg/kg, po for 7 days (reference value: 51.8 +/- 2.03 mg/dl). The class given is functional.
Data set [6] deals with Rattus norvegicus. Nature of the data set: Antihyperlipidemic activity in high fat diet-induced hyperlipidemic Sprague-Dawley rat model assessed as reduction of blood cholesterol level at 50 mg/kg, po for 7 days (reference value: 128.8 +/- 1.20 mg/dl). The format is functional.
The test system of data set [7] is Rattus norvegicus. Nature of the data set: Toxicity in high fat diet-induced hyperlipidemic Sprague-Dawley rat model assessed as increase of locomotor activity at 50 mg/kg, po for 7 days measured for 5 mins. The settings on record: in vivo. The arrangement: dose 50 mg/kg, route oral. The class given is organism-based.
In data set [8] the test system is Rattus norvegicus. In words: Antihyperlipidemic activity in high fat diet-induced hyperlipidemic Sprague-Dawley rat model assessed as reduction of body circumference at 50 mg/kg, po for 7 days. The class given is functional.
Data set [9] deals with Rattus norvegicus. In words: Antihyperlipidemic activity in high fat diet-induced hyperlipidemic Sprague-Dawley rat model assessed as reduction of blood triglyceride level at 250 mg/kg, po for 7 days (reference value: 142.4 +/- 1.53 mg/dl). The class given is functional.
Data set [10] deals with Rattus norvegicus. Nature of the data set: Antihyperlipidemic activity in high fat diet-induced hyperlipidemic Sprague-Dawley rat model assessed as reduction of body circumference at 250 mg/kg, po for 7 days. The class given is functional.
Data set [11] has as its system Rattus norvegicus. Nature of the data set: Antihyperlipidemic activity in high fat diet-induced hyperlipidemic Sprague-Dawley rat model assessed as reduction of blood LDL level at 250 mg/kg, po for 7 days (reference value: 51.8 +/- 2.03 mg/dl). The class given is functional.
Data set [12] relates to Rattus norvegicus. Nature of the data set: Antihyperlipidemic activity in high fat diet-induced hyperlipidemic Sprague-Dawley rat model assessed as increase of blood HDL level at 250 mg/kg, po for 7 days (reference value: 18.6 +/- 1.36 mg/dl). The format is functional.
For data set [13], the system named is Rattus norvegicus. Nature of the data set: Toxicity in high fat diet-induced hyperlipidemic Sprague-Dawley rat model assessed as increase of locomotor activity at 250 mg/kg, po for 7 days measured for 5 mins. The arrangement: dose 250 mg/kg, route oral. The settings on record: in vivo. The class given is organism-based.
The subject of data set [14] is Rattus norvegicus. In words: Antihyperlipidemic activity in high fat diet-induced hyperlipidemic Sprague-Dawley rat model assessed as reduction of body weight at 250 mg/kg, po for 7 days. The format is functional.
Data set [15] deals with Rattus norvegicus. In words: Antihyperlipidemic activity in high fat diet-induced hyperlipidemic Sprague-Dawley rat model assessed as reduction of blood cholesterol level at 250 mg/kg, po for 7 days (reference value: 128.8 +/- 1.20 mg/dl). The class given is functional.

Turning to `Nc1ccc(C(=O)CNc2nc(-c3ccc(OCC(=O)O)cc3)cs2)cc1`, the Activity with Rattus norvegicus [1] was found to be 110.4 mg/dL; with Rattus norvegicus [2], 26.2 mg/dL; with Rattus norvegicus [3], 237.333 g; with Rattus norvegicus [4], 27 mg/dL; with Rattus norvegicus [5] it was 36.8 mg/dL; in the data set with Rattus norvegicus [6], 77.6 mg/dL. Also, the Activity entry with Rattus norvegicus [7] is “Toxic”; with Rattus norvegicus [8] it was 12 cm.

On to `CC(=O)Nc1nc(-c2ccc(OCC(=O)O)cc2)cs1`, for which the Activity in the data set on Rattus norvegicus [1] amounted to 107.6 mg/dL; in the data set on Rattus norvegicus [2] it was 22.6 mg/dL; with Rattus norvegicus [3], 250.833 g; in the data set on Rattus norvegicus [4] it was 31.8 mg/dL; in the data set with Rattus norvegicus [5], 51.4 mg/dL; with Rattus norvegicus [6], 104 mg/dL. In addition, the Activity result is listed as “Non-toxic” with Rattus norvegicus [7] and 12.516 cm with Rattus norvegicus [8].

Consider `O=C(O)COc1ccc(-c2csc(NC(=O)c3ccccc3)n2)cc1`, for which the Activity was 114.6 mg/dL in the data set with Rattus norvegicus [1]; 25 mg/dL in the data set with Rattus norvegicus [2]; 239.666 g with Rattus norvegicus [3]; 28.4 mg/dL with Rattus norvegicus [4]; 34.2 mg/dL in the data set with Rattus norvegicus [5]; 89.2 mg/dL with Rattus norvegicus [6]. Further, the Activity result is recorded as “Toxic” in the data set with Rattus norvegicus [7] and 13.1 cm in the data set on Rattus norvegicus [8].

Take `CCC(=O)Nc1nc(-c2ccc(OCC(=O)O)cc2)cs1`: the Activity came to 103.6 mg/dL in the data set on Rattus norvegicus [1]; 21 mg/dL with Rattus norvegicus [2]; 224.166 g in the data set with Rattus norvegicus [3]; 30.4 mg/dL in the data set on Rattus norvegicus [4]; 33 mg/dL in the data set on Rattus norvegicus [5]; 86.6 mg/dL in the data set with Rattus norvegicus [6]. In addition, the Activity entry in the data set with Rattus norvegicus [7] is reported as “Toxic”; in the data set on Rattus norvegicus [8] it was 10.483 cm.

Turning to `O=C(O)COc1ccc(-c2csc(NC(=O)CCl)n2)cc1`, the Activity with Rattus norvegicus [1] is 118.4 mg/dL; with Rattus norvegicus [2] it was 28 mg/dL; in the data set on Rattus norvegicus [3], 230.666 g; in the data set with Rattus norvegicus [4] it was 34.4 mg/dL; in the data set on Rattus norvegicus [5], 34.8 mg/dL; in the data set on Rattus norvegicus [6], 92 mg/dL. Further, the Activity entry with Rattus norvegicus [7] was “Toxic”; in the data set with Rattus norvegicus [8] it was 9.5 cm.

For `O=C(O)COc1ccc(-c2csc(NCc3ccccc3)n2)cc1`, the Activity turned out to be 140.2 mg/dL in the data set on Rattus norvegicus [1]; 22.4 mg/dL in the data set with Rattus norvegicus [2]; 248.5 g in the data set with Rattus norvegicus [3]; 20.2 mg/dL with Rattus norvegicus [4]; 53.8 mg/dL with Rattus norvegicus [5]; 122.2 mg/dL in the data set on Rattus norvegicus [6]. In addition, the Activity entry in the data set on Rattus norvegicus [7] was “Toxic”; with Rattus norvegicus [8], 13.066 cm.

Regarding `O=C(O)COc1ccc(-c2csc(NCC(=O)c3ccc(Cl)cc3)n2)cc1`, the Activity with Rattus norvegicus [1] amounted to 136.6 mg/dL; in the data set with Rattus norvegicus [2] it was 27.2 mg/dL; in the data set with Rattus norvegicus [3] it was 220.5 g; in the data set on Rattus norvegicus [4], 18.6 mg/dL; in the data set with Rattus norvegicus [5], 50 mg/dL; with Rattus norvegicus [6] it was 119.2 mg/dL. Moreover, the Activity entry in the data set on Rattus norvegicus [7] is listed as “Toxic”; with Rattus norvegicus [8], 12.35 cm.

In the case of `O=C(O)COc1ccc(-c2csc(NCC(=O)c3ccc([N+](=O)[O-])cc3)n2)cc1`, the Activity in the data set on Rattus norvegicus [1] came to 122.8 mg/dL; in the data set on Rattus norvegicus [2], 20.2 mg/dL; in the data set with Rattus norvegicus [3], 258.166 g; in the data set on Rattus norvegicus [4], 24.6 mg/dL; in the data set with Rattus norvegicus [5], 43.2 mg/dL; with Rattus norvegicus [6], 106.8 mg/dL. The Activity result is “Non-toxic” in the data set with Rattus norvegicus [7] and 12.85 cm with Rattus norvegicus [8].

Regarding `CC(C)OC(=O)C(C)(C)Oc1ccc(C(=O)c2ccc(Cl)cc2)cc1` [FENOFIBRATE], the Activity in the data set with Rattus norvegicus [9] was 91.6 mg/dL; in the data set on Rattus norvegicus [10], 9.5 cm; in the data set on Rattus norvegicus [11], 37.2 mg/dL; with Rattus norvegicus [12], 28.4 mg/dL; in the data set on Rattus norvegicus [13], “Toxic”; in the data set with Rattus norvegicus [14] it was 229.666 g. For the same molecule, the Activity in the data set on Rattus norvegicus [15] amounted to 83.2 mg/dL.
